Laboratory results published in US20230127046A1, “G9a INHIBITOR” (RIKEN, priority 2019, published 2023).
Read-outs that look alike come from different tables or passages of the source.

Assays:
[1] = biological target: T1, recombinant human G9a protein (Homo sapiens, UniProt Q96KQ7); test: G9a inhibitory activity test (ALPHA); type: biochemical
T1 construct: purchased BPS Bioscience Inc. #51001
T1 sequence (Q96KQ7 785-1210 limits assumed): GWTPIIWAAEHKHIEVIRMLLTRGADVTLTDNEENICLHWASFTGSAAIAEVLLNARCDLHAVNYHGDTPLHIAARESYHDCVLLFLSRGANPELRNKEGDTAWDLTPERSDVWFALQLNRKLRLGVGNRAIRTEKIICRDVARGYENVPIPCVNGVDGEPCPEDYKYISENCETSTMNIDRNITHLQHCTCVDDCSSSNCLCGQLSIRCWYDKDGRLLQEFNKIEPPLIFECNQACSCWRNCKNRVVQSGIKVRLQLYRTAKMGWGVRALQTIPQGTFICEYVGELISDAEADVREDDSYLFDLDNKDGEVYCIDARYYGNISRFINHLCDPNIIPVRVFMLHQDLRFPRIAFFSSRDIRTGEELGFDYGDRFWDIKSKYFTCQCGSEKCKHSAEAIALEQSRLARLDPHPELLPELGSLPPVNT
Outline: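 Human G9a (0.05 to 0.1 nM) in Tris pH 9.0 buffer preincubated with compound 10 min, then biotinylated histone H3 (1-21) peptide and SAM mixed 1:1 from 500 nM and 150 μM solutions, 1 h at room temperature. H3K9me2 detected by AlphaLISA acceptor/streptavidin donor beads; IC50 from percent inhibition relative to no-compound and no-enzyme controls.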

[2] = tested on: intracellular histone H3K9 dimethylation level in human lung cancer cell line NCI-H460; test: Histone H3K9 dimethylation inhibitory activity test (Western blotting); type: cell-based; details: NCI-H460 cells, 72 hours
Protocol: The inhibitory activity of each compound against G9a was evaluated by adding the compound to a human lung cancer cell line NCI-H460, and detecting change in intracellular histone H3K9 dimethylation level by Western blotting. The NCI-H460 cells were cultured in a DMEM medium (FUJIFILM Wako Pure Chemical Corp., 044-29765) containing 10% fetal bovine serum and 4 mM glutamine. The cultured cells were washed with PBS and then detached with trypsin/EDTA, and the cell suspension was adjusted to 2.5×10^4 cells/mL. The cell suspension was inoculated at 500 μL/well to a 24-well microplate (Thermo Fisher Scientific, Inc., 142475) and cultured overnight under conditions of 37° C. and 5% CO2. On the next day, the test compound (solution in DMSO) was added at 0.5 µL/well and reacted for 72 hours under conditions of 37° C. and 5% CO2. DMSO was added at 0.5 μL/well to control wells (final DMSO concentration: 0.1%). The medium was removed, and the cells were washed with PBS. Then, a 2×SDS-PAGE sample buffer (100 mM Tris-HCl (pH 6.8), 4% sodium lauryl sulfate, 2% 2-mercaptoethanol, 20% glycerol, 0.005% bromophenol blue) was added at 50 μL/well to prepare a sample. The recovered sample was heated at 95 to 100° C. for 10 minutes, and protein was separated by polyacrylamide gel electrophoresis (SDS-PAGE). Subsequently, the separated protein was transferred to a polyvinylidene fluoride (PVDF) membrane by semi-dry blotting. The PVDF membrane was dipped in 3% skimmed milk (dissolved in PBS containing 0.05% Tween 20 (PBST)), blocked at room temperature for 30 to 60 minutes, then dipped in an anti-dimethylated histone H3K9 antibody (Abcam plc, ab1220) diluted 1000-fold with 3% skimmed milk, and reacted overnight at 4° C. On the next day, the PVDF membrane was washed three times with PBST, then dipped in a HRP (horseradish peroxidase)-labeled anti-mouse IgG antibody diluted 10000-fold with skimmed milk, and reacted at room temperature for 1 hour. The PVDF membrane was washed three times with PBST, then dipped in chemiluminescent substrate solution Immobilon Western Chemiluminescent HRP Substrate (Merck Millipore, WBKLS0500), incubated at room temperature for 5 minutes, and photographed with Lumino Image Analyzer (GE Healthcare Japan Corp., ImageQuant LAS4000).
Then, the antibody was stripped from the PVDF membrane using re-probe reagent EzReprobe (ATTO Corp., WSE-7240), and trimethylated histone H3K9 and histone H3 were detected by the same procedures as above. An anti-trimethyl histone H3K9 antibody (39161, diluted 1000-fold) from Active Motif, Inc. and an anti-histone H3 antibody (ab1791, diluted 2000-fold) from Abcam plc were used in the detection. The band of each protein was quantified from the taken image using image processing software ImageJ (NIH). The ratios of dimethylated histone H3K9 and trimethylated histone H3K9 to the histone H3 protein were calculated with the numeric value of a compound-unsupplemented sample defined as 100%. A compound concentration at which the ratio of dimethylated histone H3K9 was 50% was calculated as a 50% inhibition concentration (IC50 value) using data analysis software Origin (LightStone Corp.).

[3] = tested on: human lung cancer cell line NCI-H460; test: Colony formation inhibition test; type: cell-based; details: 288 h, NCI-H460 cells, culture for 12 days, read-out: Inhibitory activity (colony formation GI50)
Protocol: Each compound was evaluated for its colony formation inhibitory activity against a human lung cancer cell line NCI-H460. The NCI-H460 cells were cultured in a DMEM medium (FUJIFILM Wako Pure Chemical Corp., 044-29765) containing 10% fetal bovine serum and 4 mM glutamine. The cultured cells were washed with PBS, then detached with trypsin/EDTA, and adjusted to 2×10^3 cells/mL to prepare a cell suspension. The cell suspension was inoculated at 1 mL/well to a 12-well microplate (Corning Inc., 3513), and the test compound (DMSO solution) was added at 1 μL/well, followed by culture for 12 days under conditions of 37° C. and 5% CO2. DMSO was added at 1 μL/well to control wells with a final DMSO concentration set to 0.1%. The medium was discarded every day or every two days, and a fresh medium was added at 1 mL/well. The test compound or DMSO was added at 1 μL/well. The proportion of a colony of each well was measured using a high-speed cell imaging system (Tomy Digital Biology Co., Ltd., Celigo). The ratio of the colony in each compound-supplemented group was determined with the ratio of the colony formed in a test compound solution-unsupplemented well defined as 1. A compound concentration necessary for suppressing the rate of colony formation by 50% of the control (GI50) was calculated using data analysis software Origin (LightStone Crop.).

[4] = biotinylated histone H3 peptide (1-21), SAM, read-out: Inhibitory activity (G9a IC50 value)
[5] = read-out: Inhibitory activity (G9a IC50)

Compound	IC50 [1, 4] [nM]	IC50 [2] [nM]	GI50 [3] [nM]	IC50 [1, 5] [nM]
O=C(Cc1ccccc1)NC(CCC1CC1)C(=O)Nc1ccc(OC2COC2)nc1 (stereo not drawn) [Example 1-87]	50 to 200	50 to 500	≥ 1000	
COc1ccc(NC(=O)C(CCC2CC2)NC(=O)c2ccc(Nc3ccncc3)cc2)cn1 (stereo not drawn) [Example 6-49]		50 to 500	< 500	< 50
COc1ccc(NC(=O)C(CCC2CC2)NC(=O)c2ccc(Nc3ccncc3)cc2C)cn1 (stereo not drawn) [Example 6-51]		50 to 500	< 500	< 50
COc1ccc(NC(=O)C(CCC2CC2)NC(=O)c2ccc(CN3CCN(C)CC3)cc2)cn1 (stereo not drawn) [Example 6-52]		50 to 500	500 to 1000	≥ 200
COc1ccc(NC(=O)C(CCC2CC2)NC(=O)c2ccc(N(C)c3ccncc3)cc2)cn1 (stereo not drawn) [Example 6-55]		50 to 500	< 500	< 50
COc1ccc(NC(=O)C(CCC2CC2)NC(=O)c2ccc(Nc3cc(C)nc(C)c3)cc2)cn1 (stereo not drawn) [Example 6-62]		50 to 500	< 500	< 50
COc1ccc(NC(=O)[C@H](CCC2CC2)NC(=O)c2ccc(Nc3ccncc3)cc2)cn1 [Example 6-88]		< 50	< 500	< 50
COc1ccc(NC(=O)[C@H](CCC2CC2)NC(=O)c2ccc(Nc3cc(C)nc(C)c3)cc2)cn1 [Example 6-89]		50 to 500	< 500	< 50
CCCCC(NC(=O)c1ccc(N2CCN(C)CC2)cc1Cl)C(=O)Nc1ccc(OC2CCN(C)CC2)nc1 (stereo not drawn) [Example 11-4]		≥ 500	≥ 1000	≥ 200
CCCCC(NC(=O)Cc1ccccc1)C(=O)Nc1ccc(OC2CCN(C)CC2)nc1 (stereo not drawn) [Example 12-2]		50 to 500	≥ 1000	≥ 200
CCCC[C@H](NC(=O)c1[nH]c2c(c1C)C(=O)CC(C)(C)C2)c1nc2ccc(OC3CCNCC3)cc2[nH]1 [Example 35-1, (S)-3,6,6-trimethyl-4-oxo-N-(1-(6-(piperidin-4-yloxy)-1H-benzo[d]imidazol-2-yl)pentyl)-4,5,6,7-tetrahydro-1H-indole-2-carboxamide]		≥ 500	≥ 1000	50 to 200
CCCC[C@H](NC(=O)c1[nH]c2c(c1C)C(=O)CC(C)(C)C2)c1nc2ccc(OCC3CCNCC3)cc2[nH]1 [Example 35-2]		≥ 500	≥ 1000	< 50

Next, values leading:

IC50 [1, 4] [nM]	IC50 [2] [nM]	GI50 [3] [nM]	IC50 [1, 5] [nM]	Compound
50 to 200	< 50	≥ 1000		CCCCNC(=O)C(CCC1CC1)NC(=O)c1[nH]c2c(c1C)C(=O)CC(C)(C)C2 (stereo not drawn) [Example 1-82]
	< 50	500 to 1000	50 to 200	CCCC[C@H](NC(=O)c1[nH]c2c(c1C)C(=O)CC(C)(C)C2)C(=O)N[C@@H](C)c1ccccc1 [Example 2-1, 3,6,6-trimethyl-4-oxo-N-((S)-1-oxo-1-(((S)-1-phenylethyl)amino)hexan-2-yl)-4,5,6,7-tetrahydro-1H-indole-2-carboxamide]
	50 to 500	500 to 1000	< 50	Cc1ccc(NC(=O)[C@H](CCC2CC2)NC(=O)c2[nH]c3c(c2C)C(=O)CC(C)(C)C3)cn1 [Example 6-10]
	< 50	500 to 1000	50 to 200	Cc1c(C(=O)NC(CCC2CC2)C(=O)Nc2ccccc2)[nH]c2c1C(=O)CC(C)(C)C2 (stereo not drawn) [Example 6-17]
	< 50	< 500	< 50	Cc1c(C(=O)N[C@@H](CCC2CC2)C(=O)Nc2ccccc2)[nH]c2c1C(=O)CC(C)(C)C2 [Example 6-26]
	< 50	< 500	< 50	CCCC[C@H](NC(=O)c1[nH]c2c(c1C)C(=O)CC(C)(C)C2)C(=O)Nc1ccc(OC2CCN(C)CC2)cc1OC [Example 6-30]
	< 50	< 500	< 50	CCCC[C@H](NC(=O)c1[nH]c2c(c1C)C(=O)CC(C)(C)C2)C(=O)Nc1ccc(OC2CCN(C)CC2)cc1 [Example 6-32]
	50 to 500	≥ 1000	≥ 200	CCCC[C@H](NC(=O)c1[nH]c2c(c1C)C(=O)CC(C)(C)C2)C(=O)Nc1ccccc1 [Example 6-33]
	< 50	500 to 1000	< 50	CCCC[C@H](NC(=O)c1[nH]c2c(c1C)C(=O)CC(C)(C)C2)C(=O)NCc1ccc(CN(C)C)cc1 [Example 6-34]
	< 50	500 to 1000	50 to 200	CCCC[C@H](NC(=O)c1[nH]c2c(c1C)C(=O)CC(C)(C)C2)C(=O)NCc1ccc(N2CCN(C)CC2)cc1 [Example 22-2]
